Among the data in a melting point compilation (Tetko et al.; mined from patent text by program, amines drawn as free bases though some values may be those of a salt) are melting point values, retold here.

What is called melting point is the temperature, or range, at which the solid turns liquid. On to `CN(C)CCNC(=O)Oc1ccc(Cl)cc1Cn1nc(-c2ccc(C(F)(F)F)cc2)oc1=O`, for which the melting point is 158 to 159 °C.

Take `CC(C)(Cl)C(CCNC(=O)C(F)(F)F)N=O` (stereo not drawn): the melting point was in the range of 91 to 93 °C.

Turning to `COc1cc(OCc2ccccn2)ccc1/C=C/c1cc(/C=C/c2ccc3ccn(C(C)=O)c3c2)n[nH]1`, the melting point was in the range of 182 to 187 °C.

For the molecule `Cc1nc(C(F)(F)F)ccc1C(Cl)=C1C(=O)C(C)(C)C(=O)C(C)(C)C1=O`, the melting point is 92.5 to 93 °C.

In turn, `CCC1c2nc[nH]c2CCN1C(=S)NC` (stereo not drawn) registered a melting point of 230 °C.

Regarding `CCN1C(=O)C(C)(C)N=C(c2ccccc2F)c2cc([N+](=O)[O-])cc(Cl)c21`, the melting point was found to be 156 °C.

In the case of `CCOC(=O)C1COc2ccc(C(C)=O)cc2O1` (stereo not drawn), the melting point amounted to 57 °C.

Molecule `Cc1cccc(C)c1OP(=O)(c1ccccc1)c1cc(O)ccc1O` (stereo not drawn) came in with a melting point of 172 °C.

`CC(C)(C)OC(=O)Nc1ccc2ccc(S(=O)(=O)N(Cc3ccccc3)Cc3ccccc3)cc2c1Br` gave a melting point of 150 to 151 °C.

`COc1ccc(CCc2nnc(-c3ccc4nccn4c3)o2)cc1C(F)(F)F` returned a melting point of 150 to 151 °C.

In turn, `O[C@@H](c1c[nH]nc1-c1ccccc1)[C@H](CCN1CCC(O)(c2ccccc2)CC1)c1ccc(Cl)c(Cl)c1` (racemic) registered a melting point of 133 to 135 °C.

In turn, `O=C1c2ccccc2C(=O)N1C[C@H](O)CCl` displayed a melting point of 100 to 101 °C.

In the case of `CC(O)COC(c1c(C(C)C)nn2ccccc12)C(C)C` (stereo not drawn), the melting point stood at 112 °C.

The molecule `CCOc1nn(-c2ccc(C(F)(F)F)cn2)cc1CCOc1cc(CC(=O)O)n(C)n1` registered a melting point of 156 to 158 °C.

In turn, `CCOP(=O)(Cc1cc(Cl)c(O)c(C(C)(C)C)c1)OCC` came in with a melting point of 116 °C.

For the molecule `CC(NCCO)c1ccccc1` (stereo not drawn), the melting point was found to be 60 °C.

For `Cc1c(C(C)(C)C)cc(C(C)C)c(-c2c(C(C)C)cc(C(C)(C)C)c(C)c2O)c1O`, the melting point lay in the range of 105 to 108 °C.

`O=C(CC1COC1)N[C@H]1CC[C@H](CCN2CCN(c3nccc4c3OCC4)CC2)CC1` showed a melting point of 175 °C.

For `O=C(Nc1ccc(Cl)cc1)c1cccc(/C=C/c2ccccn2)c1`, the melting point worked out at 213 °C.

Molecule `On1c(-c2ccc(F)cc2)nc2ccc(Cn3ccnc3)cc21` showed a melting point of 82 °C.

As for `CCCCCCCCCCOCCCCCCCSCCCO`, the melting point is 28 to 32 °C.

In the case of `CN1CCCc2cccc(CS(=O)c3nc4ccccc4[nH]3)c21` (stereo not drawn), the melting point was in the range of 112 to 113 °C.

For the molecule `Cc1ccccc1C(CCC(=O)O)Oc1cc(OCc2ccsc2)cc(F)c1C#N` (racemic), the melting point lay within 150 to 151 °C.

Take `COc1cc(C(=O)OCC2(N(C)C)CCCc3sccc32)cc(OC)c1OC` (stereo not drawn): the melting point fell in the range of 82 to 83 °C.

In the case of `COc1ccc(C(C#Cc2ccccc2)Cc2ncc(C)o2)cc1OC1CCCC1` (racemic), the melting point is 103 to 104 °C.

For `CCC(=O)n1c(=O)n(-c2ccc([N+](=O)[O-])cc2)c(=O)n1C(=O)CC`, the melting point was 140 to 142 °C.

`CC(C)n1cc(-c2nc(C(N)=O)c(N)nc2-c2ccc(F)cc2)ccc1=O` came in with a melting point of 236 °C.

On to `O=C1CCCCc2ccc(N3C[C@H](CO)OC3=O)cc21`, for which the melting point lay in the range of 144 to 146 °C.

`CNC(=O)c1ccccc1Nc1nc(Nc2ccc3c(c2)OCCNC3=O)ncc1Cl`: the melting point lay within 293 to 295 °C.

In the case of `COc1ccccc1C1=CCN(C[C@@H](CC2CCCCC2)NC(=O)C2(C)CCCCC2)CC1`, the melting point was in the range of 93 to 95 °C.

For the molecule `CCOC(=O)Nc1cc(N2CCN(c3ccc([N+](=O)[O-])cc3)CC2)ccn1`, the melting point fell in the range of 243 to 245 °C.

Regarding `CCOC(=O)C1C(=O)N(Cc2ccc(Br)cc2F)C(=O)c2cccn21` (stereo not drawn), the melting point lay in the range of 114 to 115 °C.

`CCOc1ccc2c(=O)cc(-c3ccccc3)oc2c1` registered a melting point of 138 to 139 °C.

`COc1ccccc1NC(=O)NC1N=C(c2ccccc2)c2ccccc2N(C)C1=O` (stereo not drawn) showed a melting point of 258 to 260 °C.

With `COC(=O)c1c[nH]c(Sc2ccccc2C)c1`, the melting point is 114 to 119 °C.

As for `COc1cccc2c1Cc1ccccc1C2(CC(=O)O)CC(=O)O`, the melting point lay within 150 to 153 °C.

As to `CCCNC(=O)C(C)Cc1ccc2cccc(Cc3ccc(C(=O)O)cc3OC)c2c1` (stereo not drawn), the melting point lay in the range of 199 to 200 °C.

On to `CCOP(=O)(OCC)C(O)c1cccc(F)c1` (stereo not drawn), for which the melting point is 81 to 82 °C.

Molecule `C=CCNC(=O)c1ccc(N)cc1Br` yielded a melting point of 115 to 117 °C.

Regarding `CCCCc1ccc(OC)c(-c2csc(NC(=O)c3ccc(C(=O)CCN4CCC(NC(C)=O)C4)cc3)n2)c1` (stereo not drawn), the melting point is 112 °C.

For the molecule `COc1ccc(COc2ccc(COc3ccc4c(c3)CCC(CN(C)C)C4)cc2)cc1` (stereo not drawn), the melting point lay within 106 to 111 °C.

As to `S=C(NCCc1c[nH]cn1)NCCN(Cc1ccc(Cl)c(Cl)c1)c1ccc(Br)cn1`, the melting point was in the range of 72 to 78 °C.

`C[C@H]1[C@H](O)[C@H](O)C(S(=O)(=O)c2ccccc2)=C[C@H](C)[C@H]1O` yielded a melting point of 143 to 145 °C.

In the case of `CC(C(=O)O)c1ccc2c(c1)C(=O)Cc1cc([N+](=O)[O-])ccc1S2` (stereo not drawn), the melting point is 210 to 211 °C.

The molecule `O=c1cccc(C(F)F)[nH]1` gave a melting point of 125 to 127 °C.

Molecule `O=C(O)c1cc(-c2ccnc(Nc3cccc(C(F)(F)F)c3)n2)ccn1` yielded a melting point of 241 to 245 °C.

With `NC(=O)CCC(C(=O)O)N1C(=O)c2cccc(N)c2C1=O` (stereo not drawn), the melting point lay within 165 to 167 °C.

The molecule `CSc1c(-n2ccnc2)c(-c2ccc(Cl)c(Cl)c2)nn1C` gave a melting point of 88 to 90 °C.

Regarding `O=C1CCc2c1ccc1c2CCc2ccccc2-1`, the melting point fell in the range of 127 to 128 °C.

`CCOC(=O)C(=O)Nc1coc2cc(OC)ccc2c1=O`: the melting point fell in the range of 218 to 220 °C.

`COC(=O)Nc1cn2ccc(Sc3ccccc3)cc2n1` displayed a melting point of 221 to 223 °C.

In turn, `CCN(CC)CCC(N)=NO` yielded a melting point of 52 to 54 °C.

`COc1ccnc(CC(C)(C)C(=O)O)c1` yielded a melting point of 150 to 151 °C.

Regarding `COCCc1nc2c(N)nc3ccccc3c2n1CCCCNC(=O)c1cnc2ccccc2c1`, the melting point lay within 114 to 116 °C.

The molecule `CCc1cc(OCc2ccccc2)cc(C(=O)OC)c1C(=O)OC` yielded a melting point of 66 to 67 °C.

`O=C(O)c1cccc(S(=O)(=O)Oc2ccc(-c3ccc(-c4c(Cc5ccccc5)oc5ccccc45)cc3)cc2)c1` yielded a melting point of 169 to 171 °C.

Molecule `COc1ccc(OC)c2c1COC(C(=O)O)C2` (stereo not drawn) showed a melting point of 164 to 166 °C.

For `CC(=O)C1=C(C)Nc2nc(N)nc(N)c2C1c1ccccc1Cl` (stereo not drawn), the melting point stood at 254 °C.

In the case of `CC(=CN1CCC(CCCC2CCN(C=C(C)c3ccccc3)CC2)CC1)c1ccccc1`, the melting point was determined as 120 °C.

`CC(C)(C)C(=O)OCc1cc2c(OCC3CO3)cccc2[nH]1` (stereo not drawn) showed a melting point of 129 to 131 °C.

Take `Cc1nnc(CCl)n1-c1ccc(Cl)cc1C(=O)c1ccccc1Cl`: the melting point was in the range of 127 to 130 °C.

The molecule `Clc1cc(Cl)c2oc(-c3ccc(C=Cc4ccc(-c5ccccc5)cc4)cc3)cc2c1` gave a melting point of 258 to 260 °C.

With `NC1=NC(c2ccc(F)cc2)CO1` (stereo not drawn), the melting point lay in the range of 116 to 121 °C.

On to `CCCc1c(OCCCSCCBr)ccc(C(C)=O)c1O`, for which the melting point fell in the range of 74 to 75 °C.

On to `C[C@@H](C(=O)Nc1ccc(-n2nc(C(F)(F)F)cc2C2CC2)cc1)n1nnc2cccnc21`, for which the melting point was in the range of 186 to 191 °C.

Turning to `Cc1ncsc1C(C)(O)c1cccs1` (stereo not drawn), the melting point fell in the range of 146 to 148 °C.

`CC(O)CC(=O)Nc1c(C(=O)c2ccccc2)[nH]c2cc(Cl)ccc12` (stereo not drawn): the melting point was in the range of 159 to 162 °C.

Molecule `COc1cc2c(Nc3ccc(Cl)cc3F)ncnc2cc1OCCCn1ccc(=O)cc1` displayed a melting point greater than 250 °C.

Regarding `CCOC(=O)CC(NC(=O)c1ccc(Cl)cc1)C(=O)c1ccsc1` (stereo not drawn), the melting point was 106 to 108 °C.

Turning to `COCCc1nc2c(N)nc3ccccc3c2n1CCCCCS(=O)(=O)c1ccccc1`, the melting point lay within 172 to 175 °C.

As for `COc1cc2c(cc1OC)C1CCC(O)CC1N=C2c1ccc(OCC2CC2)c(OCC2CC2)c1` (stereo not drawn), the melting point is 172 to 174 °C.

The molecule `CS(=O)(=O)c1ccc(-c2ccccc2-c2ccc(F)c(Cl)c2)cc1` came in with a melting point of 180 to 181 °C.

The molecule `O=C1OC(=O)c2c(Cl)c(Sc3ccccc3)c(Cl)c(Cl)c21` came in with a melting point of 162 to 164 °C.

As to `Cc1cccc2c1N(C(=O)OC(C)(C)C)Cc1c(-c3noc(C4CC4)n3)ncn1-2`, the melting point fell in the range of 189 to 192 °C.

The molecule `CC(NC(=O)c1cc(Cl)ccc1NC(=O)c1cc(Br)nn1-c1ncccc1Cl)C1CC1` (stereo not drawn) gave a melting point of 231 to 233 °C.

`CCCCOC(=O)C(=O)Nc1nc2ccccc2s1` had a melting point of 137 to 138 °C.

`N#Cc1cccc2c1N(Cc1ccc(Cl)s1)C(=O)C21COc2cc3c(cc21)OCO3` (stereo not drawn) came in with a melting point of 192 to 193 °C.

Molecule `Cc1c(O)ccc2c(O)c(C(=O)Nc3cccc(F)c3)c(=O)oc12` showed a melting point of 287 to 289 °C.

As to `CN(C)C(=O)NCc1ccc(Nc2n[nH]c3ncnc(Nc4cccc(Cl)c4)c23)cc1`, the melting point fell in the range of 238 to 240 °C.

Consider `CC(C)(C)OC(=O)NC(Cc1ccc([N+](=O)[O-])cc1)C(=O)O` (stereo not drawn), for which the melting point was in the range of 105 to 107 °C.

For `CCOCCN(CC1=CCC(NC(C)=O)(Oc2ccccc2)C=C1)C(=O)C(Cl)Cl` (stereo not drawn), the melting point was 114 to 116 °C.

Molecule `Nc1ccc2ccccc2c1-c1c(P(=O)(c2ccccc2)c2ccccc2)ccc2ccccc12` displayed a melting point of 133 °C.

For `CCc1cccc(C(=O)NN(C(=O)c2cc(C)cc(C)c2)C(C)(C)C)c1C`, the melting point is 167 to 169 °C.

Molecule `COc1ccc2c(c1)Sc1c(cc(OC)c(OC)c1Br)N2C` returned a melting point of 135 to 137 °C.

`CCCCCCCCCN(CCCCC)CCC(=O)O`: the melting point fell in the range of 168 to 176 °C.

For `O=C(Nc1ccccn1)c1nc2ccccc2[nH]1`, the melting point was 206 °C.

With `CCCCc1ccc(NC(=O)CCC)c(N=C(NC(=O)OC)SC)c1`, the melting point worked out at 116 °C.

The molecule `O=C(CN1C(=O)CNC1=O)OCc1ccccc1` gave a melting point of 142 to 144 °C.
